Molecules are shown by their SMILES.

PAFR, sequence (P25105 whole entry): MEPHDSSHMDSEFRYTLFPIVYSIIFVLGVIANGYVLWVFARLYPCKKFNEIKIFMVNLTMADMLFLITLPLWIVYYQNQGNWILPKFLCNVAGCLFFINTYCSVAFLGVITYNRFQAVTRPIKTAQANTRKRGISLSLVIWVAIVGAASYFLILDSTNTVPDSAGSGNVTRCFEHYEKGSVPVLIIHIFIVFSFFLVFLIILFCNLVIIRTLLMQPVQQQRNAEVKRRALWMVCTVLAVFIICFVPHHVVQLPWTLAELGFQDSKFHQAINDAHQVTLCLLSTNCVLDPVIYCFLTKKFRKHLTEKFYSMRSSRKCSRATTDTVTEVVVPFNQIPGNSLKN

The experiment has as its target PAFR (Homo sapiens, UniProt P25105). The experiment is described as follows: PAF Binding Assay (PAFR binding).
In the case of `CCc1cc(-c2ccc(OC)c(F)c2)ccc1S(=O)(=O)N[C@H]1CCC[C@@H](n2cnnc2)C1` [Compound 2At, 3-ethyl-3′-fluoro-4′-methoxy-N-[(1S,3R)-3-(4H-1,2,4-triazol-4-yl)cyclohexyl]biphenyl-4-sulfonamide], the IC50 turned out to be 39 nM.

In the case of `CCc1cc(-c2cc(OC)cc(OC)c2)ccc1S(=O)(=O)N[C@H]1CCC[C@@H](n2cnnc2)C1` [Compound 2Au, 3-ethyl-3′,5′-dimethoxy-N-[(1S,3R)-3-(4H-1,2,4-triazol-4-yl)cyclohexyl]biphenyl-4-sulfonamide], the IC50 was 19 nM.

The molecule `CCc1cc(-c2ccc(F)cc2F)ccc1S(=O)(=O)N[C@H]1CCC[C@@H](n2cnnc2)C1` [Compound 2Av, 3-ethyl-2′,4′-difluoro-N-[(1S,3R)-3-(4H-1,2,4-triazol-4-yl)cyclohexyl]biphenyl-4-sulfonamide] returned an IC50 of 16 nM.

The molecule `CCc1cc(-c2ccc(F)c(F)c2)ccc1S(=O)(=O)N[C@H]1CCC[C@@H](n2cnnc2)C1` [Compound 2Aw, 3-ethyl-3′,4′-difluoro-N-[(1S,3R)-3-(4H-1,2,4-triazol-4-yl)cyclohexyl]biphenyl-4-sulfonamide] returned an IC50 of 24 nM.

Take `CCc1cc(-c2ccc3c(c2)OCO3)ccc1S(=O)(=O)N[C@H]1CCC[C@@H](n2cnnc2)C1` [Compound 2Ax, 4-(1,3-benzodioxol-5-yl)-2-ethyl-N-[(1S,3R)-3-(4H-1,2,4-triazol-4-yl)cyclohexyl]benzenesulfonamide]: the IC50 was 38 nM.

Molecule `CCc1cc(-c2ccc(OC(F)F)cc2)ccc1S(=O)(=O)N[C@H]1CCC[C@@H](n2cnnc2)C1` [Compound 2Ay, 4′-(difluoromethoxy)-3-ethyl-N-[(1S,3R)-3-(4H-1,2,4-triazol-4-yl)cyclohexyl]biphenyl-4-sulfonamide] showed an IC50 of 2.5 nM.

On to `CCc1cc(-c2c(C)noc2C)ccc1S(=O)(=O)N[C@H]1CCC[C@@H](n2cnnc2)C1` [Compound 2Az, 4-(3,5-dimethylisoxazol-4-yl)-2-ethyl-N-[(1S,3R)-3-(4H-1,2,4-triazol-4-yl)cyclohexyl]benzenesulfonamide], for which the IC50 amounted to 48 nM.

`O=S(=O)(N[C@H]1CCC[C@@H](n2cnnc2)C1)c1ccc(-c2ccc(OC(F)(F)F)cc2)cc1OC(F)(F)F` [Compound 2Bal, N-[(1S,3R)-3-(4H-1,2,4-triazol-4-yl)cyclohexyl]-3,4′-bis(trifluoromethoxy)biphenyl-4-sulfonamide] came in with an IC50 of 15 nM.

With `O=S(=O)(N[C@H]1CCC[C@@H](n2cnnc2C2CC2)C1)c1ccc(-c2noc(C3CC3)n2)cc1OC(F)(F)F` [Compound 2Bb, 4-(5-cyclopropyl-1,2,4-oxadiazol-3-yl)-N-[(1S,3R)-3-(3-cycloropyl-4H-1,2,4-triazol-4-yl)cyclohexyl]-2-(trifluoromethoxy)benzenesulfonamide], the IC50 is 4.3 nM.

Regarding `Cc1nncn1[C@@H]1CCC[C@H](NS(=O)(=O)c2ccc(-c3ccc(OC(F)(F)F)cc3)cc2OC(F)(F)F)C1` [Compound 2Bbd, N-[(1S,3R)-3-(3-methyl-4H-1,2,4-triazol-4-yl)cyclohexyl]-3,4′-bis(trifluoromethoxy)biphenyl-4-sulfonamide], the IC50 was 6.2 nM.

Consider `Cc1nncn1[C@@H]1CCC[C@H](NS(=O)(=O)c2ccc(-c3ccc(OCC(F)(F)F)nc3)cc2OC(F)(F)F)C1` [Compound 2Bbe, N-[(1S,3R)-3-(3-methyl-4H-1,2,4-triazol-4-yl)cyclohexyl]-4-[6-(2,2,2-trifluoroethoxy)pyridin-3-yl]-2-(trifluoromethoxy)benzenesulfonamide], for which the IC50 worked out at 2 nM.

For the molecule `Cc1nncn1[C@@H]1CCC[C@H](NS(=O)(=O)c2ccc(-c3noc(C4CCC4)n3)cc2OC(F)(F)F)C1` [Compound 2Bbg, 4-(5-cyclobutyl-1,2,4-oxadiazol-3-yl)-N-[(1S,3R)-3-(3-methyl-4H-1,2,4-triazol-4-yl)cyclohexyl]-2-(trifluoromethoxy)benzenesulfonamide], the IC50 was 1.5 nM.

In turn, `Cc1nncn1[C@@H]1CCC[C@H](NS(=O)(=O)c2ccc(-c3noc(C4CCCC4)n3)cc2OC(F)(F)F)C1` [Compound 2Bbh, 4-(5-cyclopentyl-1,2,4-oxadiazol-3-yl)-N-[(1S,3R)-3-(3-methyl-4H-1,2,4-triazol-4-yl)cyclohexyl]-2-(trifluoromethoxy)benzenesulfonamide] displayed an IC50 of 3.8 nM.

In turn, `O=S(=O)(N[C@H]1CCC[C@@H](n2cnnc2C2CC2)C1)c1ccc(-c2noc(C3CCC3)n2)cc1OC(F)(F)F` [Compound 2Bc, 4-(5-cyclobutyl-1,2,4-oxadiazol-3-yl)-N-[(1S,3R)-3-(3-cycloropyl-4H-1,2,4-triazol-4-yl)cyclohexyl]-2-(trifluoromethoxy)benzenesulfonamide] gave an IC50 of 2.5 nM.

As for `O=S(=O)(N[C@H]1CCC[C@@H](n2cnnc2C2CC2)C1)c1ccc(-c2noc(C3CC(F)(F)C3)n2)cc1OC(F)(F)F` [Compound 2Bd, N-[(1S,3R)-3-(3-cycloropyl-4H-1,2,4-triazol-4-yl)cyclohexyl]-4-[5-(3,3-difluorocyclobutyl)-1,2,4-oxadiazol-3-yl]-2-(trifluoromethoxy)benzenesulfonamide], the IC50 is 6.3 nM.

Molecule `CCc1cc(-c2ccc(OCC(F)(F)F)nc2)ccc1S(=O)(=O)N[C@@H]1C[C@H](n2cnnc2)CC(F)(F)C1` [Compound 2Cak, N-[(1R,5S)-3,3-difluoro-5-(4H-1,2,4-triazol-4-yl)cyclohexyl]-2-ethyl-4-[6-(2,2,2-trifluoroethoxy)pyridin-3-yl]benzenesulfonamide] had an IC50 of 3.1 nM.

`CCc1cc(-c2ccc(OC(F)(F)F)cc2)ccc1S(=O)(=O)N[C@@H]1C[C@H](n2cnnc2)CC(F)(F)C1` [Compound 2Cal, N-[(1R,5S)-3,3-difluoro-5-(4H-1,2,4-triazol-4-yl)cyclohexyl]-3-ethyl-4′-(trifluoromethoxy)biphenyl-4-sulfonamide] yielded an IC50 of 11 nM.

`CCc1cc(-c2noc(C3CC3)n2)ccc1S(=O)(=O)N[C@@H]1C[C@H](n2cnnc2C)CC(F)(F)C1` [Compound 2Cbb, 4-(5-cyclopropyl-1,2,4-oxadiazol-3-yl)-N-[(1R,5S)-3,3-difluoro-5-(3-methyl-4H-1,2,4-triazol-4-yl)cyclohexyl]-2-ethylbenzenesulfonamide]: the IC50 is 0.8 nM.

`CCc1cc(-c2ccc(OC(F)(F)F)cc2)ccc1S(=O)(=O)N[C@@H]1C[C@H](n2cnnc2C)CC(F)(F)C1` [Compound 2Cbd, N-[(1R,5S)-3,3-difluoro-5-(3-methyl-4H-1,2,4-triazol-4-yl)cyclohexyl]-3-ethyl-4′-(trifluoromethoxy)biphenyl-4-sulfonamide]: the IC50 came out at 0.9 nM.

`CCc1cc(-c2ccc(OCC(F)(F)F)nc2)ccc1S(=O)(=O)N[C@@H]1C[C@H](n2cnnc2C)CC(F)(F)C1` [Compound 2Cbe, N-[(1R,5S)-3,3-difluoro-5-(3-methyl-4H-1,2,4-triazol-4-yl)cyclohexyl]-2-ethyl-4-[6-(2,2,2-trifluoroethoxy)pyridin-3-yl]benzenesulfonamide] had an IC50 of 0.2 nM.

The molecule `O=S(=O)(N[C@H]1CCC[C@@H](n2cnnc2)C1)c1ccc(-c2ccc(OC(F)(F)F)cc2)c(F)c1` [Compound 2Ea, 2-fluoro-N-[(1S,3R)-3-(4H-1,2,4-triazol-4-yl)cyclohexyl]-4′-(trifluoromethoxy)biphenyl-4-sulfonamide] gave an IC50 of 5.8 nM.

With `O=S(=O)(N[C@H]1CCC[C@@H](n2cnnc2)C1)c1ccc(-c2ccc(OCC(F)(F)F)cc2)c(F)c1` [Compound 2Eb, 2-fluoro-N-[(1S,3R)-3-(4H-1,2,4-triazol-4-yl)cyclohexyl]-4′-(2,2,2-trifluoroethoxy)biphenyl-4-sulfonamide], the IC50 is 0.7 nM.

Turning to `O=S(=O)(N[C@H]1CCC[C@@H](n2cnnc2)C1)c1ccc(-c2ccc(OC(F)F)cc2)c(F)c1` [Compound 2Ec, 4′-(difluoromethoxy)-2-fluoro-N-[(1S,3R)-3-(4H-1,2,4-triazol-4-yl)cyclohexyl]biphenyl-4-sulfonamide], the IC50 was 2.6 nM.

As for `CC(C)Oc1ccc(-c2ccc(S(=O)(=O)N[C@H]3CCC[C@@H](n4cnnc4)C3)cc2F)cc1` [Compound 2Ed, 2-fluoro-4′-isopropoxy-N-[(1S,3R)-3-(4H-1,2,4-triazol-4-yl)cyclohexyl]biphenyl-4-sulfonamide], the IC50 is 15 nM.

The molecule `CC(C)Oc1ccc(-c2ccc(S(=O)(=O)N[C@H]3CCC[C@@H](n4cnnc4)C3)cc2F)cn1` [Compound 2Ee, 3-fluoro-4-(6-isopropoxypyridin-3-yl)-N-[(1S,3R)-3-(4H-1,2,4-triazol-4-yl)cyclohexyl]benzenesulfonamide] returned an IC50 of 5.1 nM.

In turn, `O=S(=O)(N[C@H]1CCC[C@@H](n2cnnc2)C1)c1ccc(-c2ccc(OCC(F)(F)F)nc2)c(F)c1` [Compound 2Ef, 3-fluoro-N-[(1S,3R)-3-(4H-1,2,4-triazol-4-yl)cyclohexyl]-4-[6-(2,2,2-trifluoroethoxy)pyridin-3-yl]benzenesulfonamide] displayed an IC50 of 7 nM.

With `Cc1nncn1[C@@H]1CCC[C@H](NS(=O)(=O)c2ccc(-c3ccc(OC(F)(F)F)cc3)c(F)c2)C1` [Compound 2Fa, 2-fluoro-N-[(1S,3R)-3-(3-methyl-4H-1,2,4-triazol-4-yl)cyclohexyl]-4′-(trifluoromethoxy)biphenyl-4-sulfonamide], the IC50 came to 0.2 nM.

`Cc1nncn1[C@@H]1CCC[C@H](NS(=O)(=O)c2ccc(-c3ccc(OCC(F)(F)F)cc3)c(F)c2)C1` [Compound 2Fb, 2-fluoro-N-[(1S,3R)-3-(3-methyl-4H-1,2,4-triazol-4-yl)cyclohexyl]-4′-(2,2,2-trifluoroethoxy)biphenyl-4-sulfonamide] returned an IC50 of 0.8 nM.

As to `Cc1nncn1[C@@H]1CCC[C@H](NS(=O)(=O)c2ccc(-c3ccc(OC(F)F)cc3)c(F)c2)C1` [Compound 2Fc, 4′-(difluoromethoxy)-2-fluoro-N-[(1S,3R)-3-(3-methyl-4H-1,2,4-triazol-4-yl)cyclohexyl]biphenyl-4-sulfonamide], the IC50 is 1.9 nM.

Molecule `Cc1nncn1[C@@H]1CCC[C@H](NS(=O)(=O)c2ccc(-c3ccc(OC(C)C)nc3)c(F)c2)C1` [Compound 2Fe, 3-fluoro-4-(6-isopropoxypyridin-3-yl)-N-[(1S,3R)-3-(3-methyl-4H-1,2,4-triazol-4-yl)cyclohexyl]benzenesulfonamide] displayed an IC50 of 3.6 nM.

For the origin of these results see patent US9029377B2, “Platelet-activating factor receptor antagonists” (Merck Sharp & Dohme Corp., priority 2009, dated 2015).
